The record followed here is patent US8476265B2, “Compounds-801” (AstraZeneca AB, priority 2010, dated 2013).

A word on the IC50: it is the concentration that gives 50% inhibition. High values mean lower potency, low ones higher potency. Usually inhibition stands for the drop in the measured response relative to a control, in per cent.

Molecules are shown by their SMILES.

Test [1] addresses T1, Adrenergic β2 (Homo sapiens, UniProt P07550).
T1 construct: Adherent H292 cells are removed from tissue culture flasks by treatment with Accutase™ cell detachment solution; endogenous in cells; host or cells: H292 cells
Description: Adrenergic β2 mediated cAMP production in H292 cells (AlphaScreen), concentration response. The test is classed as cell-based. The note with it: for EC50: 60 min, 300 μM rolipram, read-out: β2 pEC50 (converted); for β2 Intrinsic Activity: fraction relative to the maximum activity determined for formoterol. An outline of the steps: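 H292 cells seeded overnight, pretreated 10 min with rolipram (300 μM final), then exposed to compounds 60 min at room temperature in HBSS/10 mM HEPES pH 7.4/5 mM glucose, 1% DMSO. Lysate cAMP quantified by AlphaScreen against a standard curve; four-parameter fit gives pEC50 and intrinsic activity relative to formoterol maximum.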
(In general: cAMP levels reflect the balance of adenylyl cyclase and phosphodiesterase activity.)

Test [2] has as its target T2, human muscarinic acetylcholine M3 receptor (Homo sapiens, UniProt P20309).
T2 construct: expressed in transfected cells; host or cells: CHO-K1 (Chinese Hamster Ovary) cell membranes
Description: Muscarinic 3 receptor binding assay ([3H]NMS competition, SPA), pIC50. The note with it: [3H]NMS 0.1 nM, CHO-K1 cell membranes expressing human M3 receptor. An outline of the steps: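 Competition of [3H]NMS (0.1 nM, quarter Kd) binding to CHO-K1 membranes expressing human M3, SPA format, in 20 mM HEPES pH 7.4, 5 mM MgCl2, 0.1% BSA, 1% DMSO. Incubated 16 h at room temperature; non-specific binding with 1 μM atropine; pIC50 from specific binding.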

Test [3] concerns the target T1, Adrenergic β2. Kind of test: Adrenergic β2 mediated cAMP production in H292 cells, single concentration 1 μM. Format: cell-based. To be noted: NCI-H292, 1 μM compound, cAMP as percentage of the maximum response generated by 1E-07M formoterol, read-out: β2 % effect @1 uM. An outline of the steps: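 H292 cells pretreated with rolipram (300 μM final) 10 min, then compound at 1 μM final, 1% DMSO, 60 min at room temperature in HBSS/10 mM HEPES pH 7.4/5 mM glucose. Lysate cAMP quantified by AlphaScreen against a standard curve, as % of maximal response to 1E-07M formoterol.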

Test [4] has as its target T2, human muscarinic acetylcholine M3 receptor. Description: Muscarinic 3 receptor binding assay ([3H]NMS competition, SPA), single concentration 1 μM. To be noted: 1 μM compound; % inhibition specific [3H]-NMS binding. A digest of the protocol: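 CHO-K1 membranes expressing human M3 on SPA beads, competition with 0.1 nM [3H]NMS (quarter Kd) in 20 mM HEPES pH 7.4, 5 mM MgCl2, 0.1% BSA, 1% DMSO; compound at 1 μM. 16 h at room temperature. Value is % inhibition of specific binding, non-specific defined with 1 μM atropine.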

T1 sequence (P07550 whole entry): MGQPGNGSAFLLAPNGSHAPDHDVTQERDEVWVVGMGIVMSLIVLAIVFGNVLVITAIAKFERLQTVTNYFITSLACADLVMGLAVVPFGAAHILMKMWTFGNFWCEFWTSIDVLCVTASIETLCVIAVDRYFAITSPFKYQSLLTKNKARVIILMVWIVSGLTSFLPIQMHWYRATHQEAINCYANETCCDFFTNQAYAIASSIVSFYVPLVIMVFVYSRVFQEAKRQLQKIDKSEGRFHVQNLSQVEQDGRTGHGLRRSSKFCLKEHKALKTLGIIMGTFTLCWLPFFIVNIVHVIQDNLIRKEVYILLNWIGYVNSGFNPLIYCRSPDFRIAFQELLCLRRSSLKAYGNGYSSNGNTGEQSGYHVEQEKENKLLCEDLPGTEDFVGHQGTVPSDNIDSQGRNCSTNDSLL
T2 sequence (P20309 whole entry): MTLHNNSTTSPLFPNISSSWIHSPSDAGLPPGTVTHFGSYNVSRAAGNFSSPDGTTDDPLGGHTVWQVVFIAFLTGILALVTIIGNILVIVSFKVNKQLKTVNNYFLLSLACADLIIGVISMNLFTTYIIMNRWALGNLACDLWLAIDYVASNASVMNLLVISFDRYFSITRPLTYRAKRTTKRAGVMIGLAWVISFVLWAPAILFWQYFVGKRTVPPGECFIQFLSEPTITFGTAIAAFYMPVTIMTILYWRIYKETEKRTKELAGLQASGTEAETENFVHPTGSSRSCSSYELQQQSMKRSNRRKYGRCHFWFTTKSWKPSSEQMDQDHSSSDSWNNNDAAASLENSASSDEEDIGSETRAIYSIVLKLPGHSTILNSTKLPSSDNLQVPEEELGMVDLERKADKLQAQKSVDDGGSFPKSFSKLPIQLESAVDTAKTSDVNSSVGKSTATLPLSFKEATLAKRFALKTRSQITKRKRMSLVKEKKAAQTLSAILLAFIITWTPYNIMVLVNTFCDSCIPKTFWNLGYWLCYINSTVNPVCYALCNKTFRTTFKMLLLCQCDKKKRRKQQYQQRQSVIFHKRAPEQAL

As for `O=C1COc2c(CCNCCN(C(=O)CCOCCc3cccc(CN4CCC5(CC4)CN(C(=O)c4ccc(Cl)s4)CCO5)c3)C3CCCCC3)ccc(O)c2N1` [Example 106, 3-(3-((4-(5-Chlorothiophene-2-carbonyl)-1-oxa-4,9-diazaspiro[5.5]undecan-9-yl)methyl)phenethoxy)-N-cyclohexyl-N-(2-(2-(5-hydroxy-3-oxo-3,4-dihydro-2H-benzo[b][1,4]oxazin-8-yl)ethylamino)ethyl)propanamide], at Adrenergic β2 [1], the EC50 is 50.1 nM and the “β2 Intrinsic Activity” value turned out to be 1.0. Moreover, the IC50 in test [2] was 0.631 nM. In addition, at Adrenergic β2 [3], the percent of formoterol maximum response at 1 µM came out at 102%. The inhibition at 1 µM in test [4] was determined as 100%.

Consider `Cc1ccc(C(=O)N2CCOC3(CCN(Cc4cccc(CCOCCC(=O)N(CCNCCc5ccc(O)c6c5OCC(=O)N6)C5CCCCC5)c4)CC3)C2)s1` [Example 154, N-Cyclohexyl-N-(2-(2-(5-hydroxy-3-oxo-3,4-dihydro-2H-benzo[b][1,4]oxazin-8-yl)ethylamino)ethyl)-3-(3-((4-(5-methylthiophene-2-carbonyl)-1-oxa-4,9-diazaspiro[5.5]undecan-9-yl)methyl)phenethoxy)propanamide], for which, on Adrenergic β2 [1], the EC50 was 100 nM and the “β2 Intrinsic Activity” value is recorded as 1.0. In test [2], the IC50 is 0.316 nM. Also, the percent of formoterol maximum response at 1 µM at Adrenergic β2 [3] was found to be 101%. Further, in test [4], the inhibition at 1 µM amounted to 101%.

For `Cc1ccoc1C(=O)N1CCOC2(CCN(Cc3cccc(CCOCCC(=O)N(CCNCCc4ccc(O)c5c4OCC(=O)N5)C4CCCCC4)c3)CC2)C1` [Example 159, N-Cyclohexyl-N-(2-(2-(5-hydroxy-3-oxo-3,4-dihydro-2H-benzo[b][1,4]oxazin-8-yl)ethylamino)ethyl)-3-(3-((4-(3-methylfuran-2-carbonyl)-1-oxa-4,9-diazaspiro[5.5]undecan-9-yl)methyl)phenethoxy)propanamide], on Adrenergic β2 [1], the EC50 is 79.4 nM and the “β2 Intrinsic Activity” value came to 0.9. In test [2], this compound showed an IC50 of 1.26 nM. Further, the percent of formoterol maximum response at 1 µM at Adrenergic β2 [3] is 87%. In test [4], the inhibition at 1 µM is 100%.

For `O=C1COc2c(CCNCCN(C(=O)CCOCCc3cccc(CN4CCC5(CC4)CN(C(=O)CCOc4ccccc4)CCO5)c3)C3CCCCC3)ccc(O)c2N1` [Example 165, N-Cyclohexyl-N-(2-(2-(5-hydroxy-3-oxo-3,4-dihydro-2H-benzo[b][1,4]oxazin-8-yl)ethylamino)ethyl)-3-(3-((4-(3-phenoxypropanoyl)-1-oxa-4,9-diazaspiro[5.5]undecan-9-yl)methyl)phenethoxy)propanamide], on Adrenergic β2 [1], the EC50 was 79.4 nM and the “β2 Intrinsic Activity” value is on record as 1.1. In test [2], this compound gave an IC50 of 1 nM. Besides, the percent of formoterol maximum response at 1 µM on Adrenergic β2 [3] turned out to be 99%. The inhibition at 1 µM in test [4] is 100%.

Take `CCc1cc(C(=O)N2CCOC3(CCN(Cc4cccc(CCOCCC(=O)N(CCNCCc5ccc(O)c6c5OCC(=O)N6)C5CCCCC5)c4)CC3)C2)cs1` [Example 144, N-Cyclohexyl-3-(3-((4-(5-ethylthiophene-3-carbonyl)-1-oxa-4,9-diazaspiro[5.5]undecan-9-yl)methyl)phenethoxy)-N-(2-(2-(5-hydroxy-3-oxo-3,4-dihydro-2H-benzo[b][1,4]oxazin-8-yl)ethylamino)ethyl)propanamide]: on Adrenergic β2 [1], the EC50 was 39.8 nM and the “β2 Intrinsic Activity” value is 1.0. Further, the IC50 in test [2] was 0.158 nM. On Adrenergic β2 [3], the percent of formoterol maximum response at 1 µM amounted to 100%. For the same compound, the inhibition at 1 µM in test [4] was 100%.

On to `O=C1COc2c(CCNCCN(C(=O)CCOCCc3cccc(CN4CCC5(CC4)CN(C(=O)c4cccc(Cl)c4)CCO5)c3)C3CCCCC3)ccc(O)c2N1` [Example 164, 3-(3-((4-(3-Chlorobenzoyl)-1-oxa-4,9-diazaspiro[5.5]undecan-9-yl)methyl)phenethoxy)-N-cyclohexyl-N-(2-(2-(5-hydroxy-3-oxo-3,4-dihydro-2H-benzo[b][1,4]oxazin-8-yl)ethylamino)ethyl)propanamide], for which, on Adrenergic β2 [1], the EC50 is 79.4 nM and the “β2 Intrinsic Activity” value was found to be 0.8. This compound also gave a 50% inhibitory concentration (IC50) in test [2] of 2.51 nM. Also, on Adrenergic β2 [3], the percent of formoterol maximum response at 1 µM was 96%. In addition, the inhibition at 1 µM in test [4] was determined as 99%.

For the compound `CCCCc1nc(C(=O)N2CCOC3(CCN(Cc4cccc(CCOCCC(=O)N(CCNCCc5ccc(O)c6c5OCC(=O)N6)C5CCCCC5)c4)CC3)C2)cs1` [Example 175, 3-(3-((4-(2-Butylthiazole-4-carbonyl)-1-oxa-4,9-diazaspiro[5.5]undecan-9-yl)methyl)phenethoxy)-N-cyclohexyl-N-(2-(2-(5-hydroxy-3-oxo-3,4-dihydro-2H-benzo[b][1,4]oxazin-8-yl)ethylamino)ethyl)propanamide], on Adrenergic β2 [1], the EC50 is 63.1 nM and the “β2 Intrinsic Activity” value came to 1.0. The IC50 in test [2] is 0.316 nM. On Adrenergic β2 [3], the percent of formoterol maximum response at 1 µM is 86%. Moreover, the inhibition at 1 µM in test [4] came out at 100%.

Regarding `CC(C)c1cc(C(=O)N2CCOC3(CCN(Cc4cccc(CCOCCC(=O)N(CCNCCc5ccc(O)c6c5OCC(=O)N6)C5CCCCC5)c4)CC3)C2)no1` [Example 147, N-Cyclohexyl-N-(2-(2-(5-hydroxy-3-oxo-3,4-dihydro-2H-benzo[b][1,4]oxazin-8-yl)ethylamino)ethyl)-3-(3-((4-(5-isopropylisoxazole-3-carbonyl)-1-oxa-4,9-diazaspiro[5.5]undecan-9-yl)methyl)phenethoxy)propanamide], at Adrenergic β2 [1], the EC50 is 158 nM and the “β2 Intrinsic Activity” value is 1.0. For the same compound, the half-maximal inhibitory concentration (IC50) in test [2] was 1.58 nM. Besides, the percent of formoterol maximum response at 1 µM on Adrenergic β2 [3] amounted to 107%. Also, the inhibition at 1 µM in test [4] turned out to be 99%.

On to `O=C1COc2c(CCNCCN(C(=O)CCOCCc3cccc(CN4CCC5(CC4)CN(C(=O)Cc4ccc6c(c4)OCO6)CCO5)c3)C3CCCCC3)ccc(O)c2N1` [Example 140, 3-(3-((4-(2-(Benzo[d][1,3]dioxol-5-yl)acetyl)-1-oxa-4,9-diazaspiro[5.5]undecan-9-yl)methyl)phenethoxy)-N-cyclohexyl-N-(2-(2-(5-hydroxy-3-oxo-3,4-dihydro-2H-benzo[b][1,4]oxazin-8-yl)ethylamino)ethyl)propanamide], for which, at Adrenergic β2 [1], the EC50 was 200 nM and the “β2 Intrinsic Activity” value is 1.0. The compound also gave an IC50 in test [2] of 1 nM. The percent of formoterol maximum response at 1 µM on Adrenergic β2 [3] was 100%. In addition, the inhibition at 1 µM in test [4] was 100%.

In test [2], `O=C1COc2c(CCNCCN(C(=O)CCOCCc3cccc(CN4CCC5(CC4)CN(C(=O)C(O)c4ccccc4Cl)CCO5)c3)C3CCCCC3)ccc(O)c2N1` (stereo not drawn) [Example 128, 3-(3-((4-(2-(2-Chlorophenyl)-2-hydroxyacetyl)-1-oxa-4,9-diazaspiro[5.5]undecan-9-yl)methyl)phenethoxy)-N-cyclohexyl-N-(2-(2-(5-hydroxy-3-oxo-3,4-dihydro-2H-benzo[b][1,4]oxazin-8-yl)ethylamino)ethyl)propanamide] gave an IC50 of 1 nM. Further, the percent of formoterol maximum response at 1 µM at Adrenergic β2 [3] came out at 125%. Also, in test [4], the inhibition at 1 µM amounted to 99%.
